This data set relates to excised porcine nasal tissue. Nature of the data set: Ex vivo nasal mucosal absorption, static diffusion (Franz) cell. The following applies: diffusion measured after 7 hours, compared with the other formulations.

Data on one substance can be found in US10898480B1, “Pharmaceutical composition for nasal delivery” (Orexo AB, priority 2019, dated 2021).

Protocol: A standard static diffusion (Franz) cell set up was employed to set up an ex vivo model for nasal mucosa absorption, using an excised porcine nasal tissue.
Diffusion through the tissue was measured after 7 hours and permeation is shown as mean (three repeats) cumulative transport (μg/cm^2; with SD) in FIGS. 8 and 9 for naloxone and nalmefene, respectively.

For the substance benzalkonium chloride, the “Apparent permeation coefficient (Papp) of nalmefene” value was “No corresponding absorption enhancement” and the “Apparent permeation coefficient (Papp) of naloxone” value is “No corresponding absorption enhancement”.
